# ChEMBL document CHEMBL5550200, “Back-Pocket Optimization of 2-Aminopyrimidine-Based Macrocycles Leads to Potent EPHA2/GAK Kinase Inhibitors” (J Med Chem, 2024)
# Assays:
# [1] = molecular target: T1, Cyclin-G-associated kinase (Homo sapiens) (UniProt O14976)
# T1 sequence (whole entry): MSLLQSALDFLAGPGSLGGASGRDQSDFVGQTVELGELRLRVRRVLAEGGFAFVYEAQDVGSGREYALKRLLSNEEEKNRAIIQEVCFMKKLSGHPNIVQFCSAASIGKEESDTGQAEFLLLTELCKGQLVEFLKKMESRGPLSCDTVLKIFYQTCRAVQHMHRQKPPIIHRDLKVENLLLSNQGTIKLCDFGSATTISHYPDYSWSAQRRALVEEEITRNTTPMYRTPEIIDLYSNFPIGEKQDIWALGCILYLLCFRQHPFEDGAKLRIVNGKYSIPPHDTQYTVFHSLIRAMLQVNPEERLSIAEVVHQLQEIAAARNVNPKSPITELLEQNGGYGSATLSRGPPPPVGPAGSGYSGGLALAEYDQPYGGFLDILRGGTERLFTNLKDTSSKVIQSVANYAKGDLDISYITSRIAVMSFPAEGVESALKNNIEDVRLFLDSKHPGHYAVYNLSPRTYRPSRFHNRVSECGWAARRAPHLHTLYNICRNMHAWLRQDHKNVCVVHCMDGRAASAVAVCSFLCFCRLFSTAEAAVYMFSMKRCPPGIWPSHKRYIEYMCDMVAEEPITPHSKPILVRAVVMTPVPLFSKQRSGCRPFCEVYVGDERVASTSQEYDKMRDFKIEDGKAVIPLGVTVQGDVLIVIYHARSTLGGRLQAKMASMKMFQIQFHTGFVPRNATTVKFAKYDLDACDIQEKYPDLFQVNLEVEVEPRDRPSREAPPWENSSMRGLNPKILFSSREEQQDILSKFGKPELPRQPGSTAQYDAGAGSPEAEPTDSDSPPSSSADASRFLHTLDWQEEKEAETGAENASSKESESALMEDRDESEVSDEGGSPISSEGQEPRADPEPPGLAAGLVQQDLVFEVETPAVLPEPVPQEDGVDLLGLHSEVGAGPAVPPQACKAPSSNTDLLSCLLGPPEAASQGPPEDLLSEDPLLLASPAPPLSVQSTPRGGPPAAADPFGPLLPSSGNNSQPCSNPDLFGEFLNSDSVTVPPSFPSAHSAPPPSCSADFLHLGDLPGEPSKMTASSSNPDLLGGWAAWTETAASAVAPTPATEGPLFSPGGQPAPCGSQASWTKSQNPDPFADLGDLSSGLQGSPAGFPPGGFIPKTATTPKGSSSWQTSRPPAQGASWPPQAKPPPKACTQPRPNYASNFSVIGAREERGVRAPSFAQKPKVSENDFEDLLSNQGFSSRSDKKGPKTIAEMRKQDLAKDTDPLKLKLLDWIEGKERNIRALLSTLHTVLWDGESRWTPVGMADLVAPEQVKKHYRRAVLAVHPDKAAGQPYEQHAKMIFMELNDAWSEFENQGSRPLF
# Description: Induction of stabilization of recombinant GAK (unknown origin) assessed as change in melting temperature by differential scanning fluorimetry assay
# [2] = tested on: Huh-7; experiment: Cytotoxicity against human Huh-7 cells assessed as reduction in cell viability by alamar blue reagent based analysis; format: functional
# [3] = tested on: dengue virus type 2; experiment: Antiviral activity against DENV-2 New Guinea C infected in human Huh-7 cells assessed as reduction in virus induced cytopathic effect preincubated with cells for 1 hr followed by viral infection and measured after 45 to 48 hrs by luciferase assay; format: functional, organism-based; details: for EC90: time 45-48 hrs
Structure (SMILES),deltaTm [1],CC50 [2],EC50 [3],EC90 [3]
COc1cc(-c2cnc3nc2NCCCNS(=O)(=O)c2cccc(c2)N3)c(F)cc1F,7.3 K,> 10 µM,> 10 µM,> 10 µM
COc1c(F)ccc(-c2cnc3nc2NCCCNS(=O)(=O)c2cccc(c2)N3)c1F,6.8 K,2.9 µM,1.8 µM,2.9 µM
O=S1(=O)NCCCNc2nc(ncc2-c2ccc(Cl)c(Cl)c2)Nc2cccc1c2,3.6 K,> 10 µM,3.7 µM,9 µM
COc1cc(-c2cnc3nc2NCCCNS(=O)(=O)c2cc(ccc2O)N3)ccc1F,8 K,> 10 µM,> 10 µM,> 10 µM
